Results on one compound are retold here after patent US10870662B2, “Alpha-amino pateamine A derivatives and methods for treating chronic lymphocytic leukemia” (The Texas A&M University System, priority 2015, dated 2020).

Data set [1] concerns models of human leukemia and melanoma. As to conditions: mice; cited from earlier work.
The test system of data set [2] is chronic lymphocytic leukemia (CLL) cells. Briefly: CLL cell killing assay (annexin V / propidium iodide flow cytometry, 24 h). It counts as cell-based, human. As to conditions: CLL cell, primary CLL cells. As to the method: Biological Activity of 2-Amino Pateamine Derivatives Peripheral blood from the CLL patients were collected in heparin vacutainer tubes and centrifuged at 1500 rpm for 15 min to separate the plasma. The plasma (upper layer) was removed and saved for cell culture. The lower layer was diluted with phosphate-buffered saline (PBS), and the mononuclear cells were isolated by Ficoll density-gradient centrifugation. The isolated CLL cells were cultured at 1×10^7 cells/mL in RPMI 1640 medium containing 10% of fetal bovine serum, 10% autologous plasma, or 50% autologous plasma. Cell death in CLL lymphocytes was evaluated by flow cytometry analysis using annexin V and propidium iodide (PI) double staining. After incubation with increasing concentrations of PatA analogs for 24 hours, CLL cells (1×10^6 cells) were stained in 100 μL binding buffer with 5 μL annexin-Cy5, and incubated for 15 minutes in dark at room temperature. After staining, 300 μL binding buffer with 5 μL of 50 μg/mL propidium iodide were added to each tube. Samples were analyzed immediately by flow cytometer. Cells stained positive for either annexin V or PI were considered dead cells. The IC50 values of CLL killing were determined by non-linear fitting of the survival curve by the GraphPad Prism software.

A short description of data set [3]: Plasma protein binding (PPB) assay. The data set is classed as in vitro ADME. As to conditions: preliminary data. How it is done:
In this example, a representative plasma protein binding (PPB) assay used to provide the plasma protein binding data is described.
The assay includes the following steps.
1. Frozen plasma was thawed and centrifuged at 1120 g for 10 min to remove any particulates. The plasma was decanted, the pH was measured and, if required, was adjusted to pH7.4 with lactic acid.
2. All compounds were prepared at 10 mM concentration in DMSO. The solutions were carefully vortexed to ensure the compounds dissolved. The 10 mM DMSO solutions were diluted to 500 μM MeOH solutions (5+95 μl).
3. In a 2 mL 96-well plate (DWP), 1000 μL of plasma was pipetted into each well in Columns 1-4.
4. 10 μL of the 500 μM compound solution was pipetted to 1000 μL of corresponding plasma. (The final DMSO=0.05%). The solution was capped and carefully vortexed for 5 min.
5. 200 μL of PBS buffer was added to each receiver well of the dialysis plate (buffer was added to the Receiver first).
6. The bottom of dialysis plate was capped and turned over to the orange donor side (top) of dialysis plate.
7. The orange donor side of the dialysis plate was uncapped and 200 μL of the […] drug/plasma samples were transferred from the 2 ml 96-DWP to the corresponding donor wells in the dialysis plate. […]
23. The samples in the Receiver Plate, Donor Plate, and Recovery Plate were analyzed by LC/MS/MS […]

Like-named read-outs stand apart in the source and are kept apart here. A value given as a limit tells only on which side of the number the result lay.

Take `CC(/C=C/C(C)=C/[C@@H]1Cc2nc(cs2)CCCCC(=O)O[C@@H](C)C/C(C)=C/C=C\C(=O)O1)=C\CN(C)C` [DMDA Pat A, Des-methyl, des-amino pateamine A, reference compound]: the “activity in xenograft models” value in data set [1] is “significant tumor reduction”. Besides, the IC50 in data set [2] (RPMI 1640 with 10% autologous (human) plasma, read-out: IC50 CLL Assay, 10% plasma) was 5.37 µM; in data set [2] (RPMI 1640 with 50% autologous (human) plasma, read-out: IC50 CLL Assay, 50% plasma), greater than 10 µM; in data set [2] (Homo sapiens, RPMI 1640 with 10% fetal bovine serum, read-out: IC50 CLL Assay, 10% FBS) it was 0.71 µM. For the same compound, in data set [3], the “plasma protein binding in human plasma” value is recorded as “highly protein bound”.
